This is an account of results in US9315491B2 (DEVELOPMENT CENTER FOR BIOTECHNOLOGY, priority 2009, dated 2016).

For this experiment, the target named is PI3K (p110α/p85α) (Homo sapiens (Human), UniProt P42336). As to the kind of experiment: PI3K HTRF enzyme assay, p110α/p85α. Conditions: read-out: % inhibition @ 500 nM p110α; compound at 500 nM, 10 μM ATP. Type of experiment: biochemical. The method, then: Recombinant PI3K (p110α/p85α) and PI3K (p110β/p85α) were from Millipore. […] Briefly, the compounds of interest dissolved in 100% DMSO were dispensed in all wells, following which the mixture of PIP2 and enzyme was added. PI3K (p110α/p85α) and PI3K (p110β/p85α) enzyme reactions were initiated in the presence of 10 μM and 100 μM ATP, respectively, and incubated for 30 min at room temperature. STOP solution prepared 2 hours prior to use was added to stop reactions, and mixed well. Detection solution prepared 2 hours prior to use was added, and incubated at room temperature for 17 hours in the dark. […] HTRF ration was calculated as follows: […]
PI3K (p110α/p85α), sequence (P42336 whole entry, species assumed): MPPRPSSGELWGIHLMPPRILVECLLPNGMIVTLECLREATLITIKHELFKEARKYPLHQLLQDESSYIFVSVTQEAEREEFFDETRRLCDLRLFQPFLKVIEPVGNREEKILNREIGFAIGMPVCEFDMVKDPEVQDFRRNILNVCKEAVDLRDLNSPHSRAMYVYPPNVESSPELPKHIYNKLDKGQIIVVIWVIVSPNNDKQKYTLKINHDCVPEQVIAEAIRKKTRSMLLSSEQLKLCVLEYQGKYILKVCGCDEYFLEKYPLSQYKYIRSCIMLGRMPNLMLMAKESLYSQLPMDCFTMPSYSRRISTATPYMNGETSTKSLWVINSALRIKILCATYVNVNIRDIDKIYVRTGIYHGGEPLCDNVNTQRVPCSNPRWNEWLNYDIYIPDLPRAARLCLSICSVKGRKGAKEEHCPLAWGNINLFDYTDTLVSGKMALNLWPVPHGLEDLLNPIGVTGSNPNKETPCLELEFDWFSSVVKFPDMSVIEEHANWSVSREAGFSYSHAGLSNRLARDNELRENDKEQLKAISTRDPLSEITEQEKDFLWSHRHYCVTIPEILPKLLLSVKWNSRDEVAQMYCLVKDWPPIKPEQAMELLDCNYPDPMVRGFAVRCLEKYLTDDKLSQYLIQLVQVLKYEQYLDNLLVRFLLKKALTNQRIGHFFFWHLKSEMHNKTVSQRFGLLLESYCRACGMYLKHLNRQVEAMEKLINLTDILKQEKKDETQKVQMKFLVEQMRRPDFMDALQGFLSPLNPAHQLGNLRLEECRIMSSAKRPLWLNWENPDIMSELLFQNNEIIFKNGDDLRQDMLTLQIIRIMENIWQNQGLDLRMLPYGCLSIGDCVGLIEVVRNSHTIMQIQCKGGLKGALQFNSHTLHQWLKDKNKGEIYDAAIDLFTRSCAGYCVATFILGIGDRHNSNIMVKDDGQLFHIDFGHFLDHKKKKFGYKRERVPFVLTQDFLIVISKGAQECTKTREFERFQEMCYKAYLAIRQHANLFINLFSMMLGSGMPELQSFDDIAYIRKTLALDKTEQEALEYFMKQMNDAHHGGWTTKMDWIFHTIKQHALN
PI3K (p110α/p85α), sequence (P27986 whole entry partner, species assumed): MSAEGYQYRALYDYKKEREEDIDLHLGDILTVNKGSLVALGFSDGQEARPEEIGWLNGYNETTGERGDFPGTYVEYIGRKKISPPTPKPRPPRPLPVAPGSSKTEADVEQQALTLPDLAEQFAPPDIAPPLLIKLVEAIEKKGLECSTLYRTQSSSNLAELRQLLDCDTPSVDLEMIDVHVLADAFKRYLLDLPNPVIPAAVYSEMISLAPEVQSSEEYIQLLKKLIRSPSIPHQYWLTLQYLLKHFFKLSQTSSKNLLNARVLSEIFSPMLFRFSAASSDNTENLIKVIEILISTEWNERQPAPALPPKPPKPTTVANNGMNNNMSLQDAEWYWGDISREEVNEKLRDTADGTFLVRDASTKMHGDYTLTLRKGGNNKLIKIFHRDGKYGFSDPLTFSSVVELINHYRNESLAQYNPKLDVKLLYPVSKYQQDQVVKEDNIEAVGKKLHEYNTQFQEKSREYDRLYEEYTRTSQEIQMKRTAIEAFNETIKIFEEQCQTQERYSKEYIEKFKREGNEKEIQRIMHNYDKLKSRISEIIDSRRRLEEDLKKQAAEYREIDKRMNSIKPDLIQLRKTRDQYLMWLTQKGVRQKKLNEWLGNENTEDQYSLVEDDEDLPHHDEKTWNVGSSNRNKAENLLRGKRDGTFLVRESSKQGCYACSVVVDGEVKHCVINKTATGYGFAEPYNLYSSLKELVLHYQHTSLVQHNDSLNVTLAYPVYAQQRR
As to `CCOc1cnc(-c2ccc(NC(=O)Nc3ccc(C(N)=O)cc3)cc2)nc1N1CCOCC1` [MTR-0323, 4-{3-[4-(5-Ethoxy-4-morpholin-4-yl-pyrimidin-2-yl)-phenyl]-ureido}-benzamide], the inhibition at 0.5 µM is 90.8%. Then `CCOc1cnc(-c2ccc(NC(=O)Nc3ccc(N4CCOCC4=O)cc3)cc2)nc1N1CCOCC1` [MTR-0325, 1-[4-(5-Ethoxy-4-morpholin-4-yl-pyrimidin-2-yl)-phenyl]-3-[4-(3-oxo-morpholin-4-yl)-phenyl]-urea], with 91.5%; and `CCOc1cnc(-c2ccc(NC(=O)Nc3ccc(S(N)(=O)=O)cc3)cc2)nc1N1CCOCC1` [MTR-0326, 4-{3-[4-(5-Ethoxy-4-morpholin-4-yl-pyrimidin-2-yl)-phenyl]-ureido}-benzenesulfonamide], with 90.7%. Then `CSc1c(Cl)nc(-c2ccc(NC(=O)Nc3ccc(NS(C)(=O)=O)cc3)cc2)nc1N1CCOCC1` [MTR-0347, N-(4-{3-[4-(4-Chloro-5-methylsulfanyl-6-morpholin-4-yl-pyrimidin-2-yl)-phenyl]-ureido}-phenyl)-methanesulfonamide], with 80.6%. Under `COc1cnc(-c2ccc(NC(=O)Nc3ccc(C(=O)O)cc3)cc2)nc1N1CCOCC1` [MTR-0351, 4-{3-[4-(5-Methoxy-4-morpholin-4-yl-pyrimidin-2-yl)-phenyl]-ureido}-benzoic acid] stands 52.3%; under `CCOc1cnc(-c2ccc(NC(=O)Nc3ccc(NC(C)=O)cc3)cc2)nc1N1CCOCC1` [MTR-0368, N-(4-{3-[4-(5-Ethoxy-4-morpholin-4-yl-pyrimidin-2-yl)-phenyl]-ureido}-phenyl)-acetamide], 101%. Take `CCOC(=O)c1nc(-c2ccc(NC(=O)Nc3ccc(NC(C)=O)cc3)cc2)nc(N2CCOCC2)c1OCC` [MTR-0370, 2-{4-[3-(4-Acetylamino-phenyl)-ureido]-phenyl}-5-ethoxy-6-morpholin-4-yl-pyrimidine-4-carboxylic acid ethyl ester]: the inhibition at 0.5 µM came out at 61.8%. Under `CSc1c(Cl)nc(-c2ccc(NC(=O)Nc3ccc4oc(=O)[nH]c4c3)cc2)nc1N1CCOCC1` [MTR-0372, 1-[4-(4-Chloro-5-methylsulfanyl-6-morpholin-4-yl-pyrimidin-2-yl)-phenyl]-3-(2-oxo-2,3-dihydro-benzooxazol-5-yl)-urea] stands 95.5%; under `CSc1cnc(-c2ccc(NC(=O)Nc3ccc(NS(C)(=O)=O)cc3)cc2)nc1N1CCOCC1` [MTR-0376, N-(4-{3-[4-(5-Methylsulfanyl-4-morpholin-4-yl-pyrimidin-2-yl)-phenyl]-ureido}-phenyl)-methanesulfonamide], 79.4%. Take `CSc1cnc(-c2ccc(NC(=O)Nc3ccc(N4CCOCC4=O)cc3)cc2F)nc1N1CCOCC1` [MTR-0378, 1-[3-Fluoro-4-(5-methylsulfanyl-4-morpholin-4-yl-pyrimidin-2-yl)-phenyl]-3-[4-(3-oxo-morpholin-4-yl)-phenyl]-urea]: the inhibition at 0.5 µM came out at 84.5%.

Consider `CSc1cnc(-c2ccc(NC(=O)Nc3ccc(NC(C)=O)cc3)cc2)nc1N1CCOCC1` [MTR-0380, N-(4-{3-[4-(5-Methylsulfanyl-4-morpholin-4-yl-pyrimidin-2-yl)-phenyl]-ureido}-phenyl)-acetamide], for which the inhibition at 0.5 µM is 101%. Then `COc1cnc(-c2ccc(NC(=O)Nc3ccc(C(=O)N4CCOCC4)cc3)cc2)nc1N1CCOCC1` [MTR-0382, 1-[4-(5-Methoxy-4-morpholin-4-yl-pyrimidin-2-yl)-phenyl]-3-[4-(morpholine-4-carbonyl)-phenyl]urea], with 95.9%; and `COc1cnc(-c2ccc(NC(=O)Nc3ccc(C(N)=O)cc3)c(F)c2)nc1N1CCOCC1` [MTR-0385, 4-{3-[2-Fluoro-4-(5-methoxy-4-morpholin-4-yl-pyrimidin-2-yl)-phenyl]-ureido}-benzamide], with 64%; and `CSc1c(Cl)nc(-c2ccc(NC(=O)Nc3ccc(S(C)(=O)=O)cc3)cc2)nc1N1CCOCC1` [MTR-0387, 1-[4-(4-Chloro-5-methylsulfanyl-6-morpholin-4-yl-pyrimidin-2-yl)-phenyl]-3-(4-methanesulfonyl-phenyl)-urea], with 83.1%. Then `CSc1c(-c2ccncc2)nc(-c2ccc(NC(=O)Nc3ccc(N4CCOCC4=O)cc3)cc2)nc1N1CCOCC1` [MTR-0391, 1-[4-(5-Methylsulfanyl-4-morpholin-4-yl-6-pyridin-4-yl-pyrimidin-2-yl)-phenyl]-3-[4-(3-oxo-morpholin-4-yl)-phenyl]-urea], with 51.7%; and `CSc1c(-c2ccncc2)nc(-c2ccc(NC(=O)Nc3ccc(C(N)=O)cc3)cc2)nc1N1CCOCC1` [MTR-0392, 4-{3-[4-(5-Methylsulfanyl-4-morpholin-4-yl-6-pyridin-4-yl-pyrimidin-2-yl)-phenyl]-ureido}-benzamide], with 46.6%; and `CCOc1cnc(-c2ccc(NC(=O)Nc3ccc(NS(C)(=O)=O)cc3)cc2)nc1N1CCOCC1` [MTR-0394, N-(4-{3-[4-(5-Ethoxy-4-morpholin-4-yl-pyrimidin-2-yl)-phenyl]-ureido}-phenyl)-methanesulfonamide], with 70.5%.

As to `C[S+]([O-])c1cnc(-c2ccc(NC(=O)Nc3ccc(N4CCOCC4=O)cc3)cc2)nc1N1CCOCC1` (centres unmarked) [MTR-0401, 1-[4-(5-Methanesulfinyl-4-morpholin-4-yl-pyrimidin-2-yl)-phenyl]-3-[4-(3-oxo-morpholin-4-yl)-phenyl]-urea], the inhibition at 0.5 µM is 41.7%. Regarding `CSc1cnc(-c2ccc(NC(=O)Nc3ccc(S(C)(=O)=O)cc3)cc2)nc1N1CCOCC1` [MTR-0404, 1-(4-Methanesulfonyl-phenyl)-3-[4-(5-methylsulfanyl-4-morpholin-4-yl-pyrimidin-2-yl)-phenyl]-urea], the inhibition at 0.5 µM is 66.9%. Under `COc1cnc(-c2ccc(NC(=O)Nc3ccc(N4CCOCC4=O)cc3)c(F)c2)nc1N1CCOCC1` [MTR-0405, 1-[2-Fluoro-4-(5-methoxy-4-morpholin-4-yl-pyrimidin-2-yl)-phenyl]-3-[4-(3-oxo-morpholin-4-yl)-phenyl]-urea] stands 52.5%; under `COc1cnc(-c2ccc(NC(=O)Nc3ccc(N4CCOCC4=O)cc3)cc2F)nc1N1CCOCC1` [MTR-0406, 1-[3-Fluoro-4-(5-methoxy-4-morpholin-4-yl-pyrimidin-2-yl)-phenyl]-3-[4-(3-oxo-morpholin-4-yl)-phenyl]-urea], 78.4%. Then `COc1cnc(-c2ccc(NC(=O)Nc3ccc(C(N)=O)cc3)cc2F)nc1N1CCOCC1` [MTR-0407, 4-{3-[3-Fluoro-4-(5-methoxy-4-morpholin-4-yl-pyrimidin-2-yl)-phenyl]-ureido}-benzamide], with 63.4%. Under `CSc1c(Cl)nc(-c2ccc(NC(=O)Nc3ccc(S(N)(=O)=O)cc3)cc2F)nc1N1CCOCC1` [MTR-0412, 4-{3-[4-(4-Chloro-5-methylsulfanyl-6-morpholin-4-yl-pyrimidin-2-yl)-3-fluoro-phenyl]-ureido}-benzenesulfonamide] stands 82.7%. Turning to `CCOc1cnc(-c2ccc(NC(=O)Nc3ccc(N4CCN(S(C)(=O)=O)CC4)cc3)cc2)nc1N1CCOCC1` [MTR-0420, 1-[4-(5-Ethoxy-4-morpholin-4-yl-pyrimidin-2-yl)-phenyl]-3-[4-(4-methanesulfonyl-piperazin-1-yl)-phenyl]-urea], the inhibition at 0.5 µM worked out at 58.6%. As to `CCOc1cnc(-c2ccc(NC(=O)Nc3ccc(C(=O)N4CCOCC4)cc3)cc2)nc1N1CCOCC1` [MTR-0421, 1-[4-(5-Ethoxy-4-morpholin-4-yl-pyrimidin-2-yl)-phenyl]-3-[4-(morpholine-4-carbonyl)-phenyl]-urea], the inhibition at 0.5 µM is 98.7%. Then `CCOc1cnc(-c2ccc(NC(=O)Nc3ccc(S(C)(=O)=O)cc3)cc2)nc1N1CCOCC1` [MTR-0424, 1-[4-(5-Ethoxy-4-morpholin-4-yl-pyrimidin-2-yl)-phenyl]-3-(4-methanesulfonyl-phenyl)-urea], with 71.5%; and `COc1cnc(-c2ccc(NC(=O)Nc3cccc(NC(C)=O)c3)cc2)nc1N1CCOCC1` [MTR-0426, N-(3-{3-[4-(5-Methoxy-4-morpholin-4-yl-pyrimidin-2-yl)-phenyl]-ureido}-phenyl)-acetamide], with 58.4%; and `COc1cnc(-c2ccc(NC(=O)Nc3ccc(C(=O)NCCCN(C)C)cc3)cc2)nc1N1CCOCC1` [MTR-0427, N-(3-Dimethylamino-propyl)-4-{3-[4-(5-methoxy-4-morpholin-4-yl-pyrimidin-2-yl)-phenyl]-ureido}-benzamide], with 71.1%. Under `CSc1c(Cl)nc(-c2ccc(NC(=O)Nc3ccc(C(=O)N4CCC(N(C)C)CC4)cc3)cc2)nc1N1CCOCC1` [MTR-0436, 1-[4-(4-Chloro-5-methylsulfanyl-6-morpholin-4-yl-pyrimidin-2-yl)-phenyl]-3-[4-(4-dimethylamino-piperidine-1-carbonyl)-phenyl]-urea] stands 71.5%. For the compound `CCOc1cnc(-c2ccc(NC(=O)Nc3ccc(NC(C)=O)nc3)cc2)nc1N1CCOCC1` [MTR-0442, N-(5-{3-[4-(5-Ethoxy-4-morpholin-4-yl-pyrimidin-2-yl)-phenyl]-ureido}-pyridin-2-yl)-acetamide], the inhibition at 0.5 µM came to 79.1%. Then `CCOc1cnc(-c2ccc(NC(=O)Nc3ccncc3)cc2)nc1N1CCOCC1` [MTR-0446, 1-[4-(5-Ethoxy-4-morpholin-4-yl-pyrimidin-2-yl)-phenyl]-3-pyridin-4-yl-urea], with 66.3%. Then `COc1cnc(-c2ccc(NC(=O)Nc3ccc(NS(C)(=O)=O)cc3)cc2)nc1N1CCOCC1` [MTR-0449, N-(4-{3-[4-(5-Methoxy-4-morpholin-4-yl-pyrimidin-2-yl)-phenyl]-ureido}-phenyl)-methanesulfonamide], with 75.4%.
